One assay concerns the target vanilloid receptor 1 (VR1/TRPV1 receptor) (Homo sapiens, UniProt Q8NER1). In words: Functional FLIPR Ca2+ influx assay on vanilloid receptor 1, capsaicin (Cap) stimulus. Format: cell-based. The conditions noted are these: Ki from IC50 by Cheng-Prusoff, read-out: (f) Ki (human being) [nM], Cap. On the procedure: Furthermore, preference may be given to compounds according to the invention that cause a 50 percent displacement of capsaicin, which is present at a concentration of 100 nM, in a FLIPR assay with CHO K1 cells which were transfected with the human VR1 gene at a concentration of less than 2,000 nM, preferably less than 1,000 nM, particularly preferably less than 300 nM, most particularly preferably less than 100 nM, even more preferably less than 75 nM, additionally preferably less than 50 nM, most preferably less than 10 nM.
In the process, the Ca^2+ influx is quantified in the FLIPR assay with the aid of a Ca^2+-sensitive dye (type Fluo-4, Molecular Probes Europe BV, Leiden, the Netherlands) in a fluorescent imaging plate reader (FLIPR, Molecular Devices, Sunnyvale, USA), as described hereinafter.
Pharmacological Methods I. Functional Testing Carried Out on the Vanilloid Receptor 1 (VRI/TRPV1 Receptor) […]
The number of cells in the suspension is set to 3×10^5 per mL and 150 μL of this suspension are in each case introduced into a recess in the cell culture plates coated as described hereinbefore. In the incubator the plates are left for two to three days at 37° C., 5% by volume of CO2 and 95% relative humidity. Subsequently, the cells are loaded with 2 μM of Fluo-4 and 0.01% by volume of Pluronic F127 (Molecular Probes Europe BV, Leiden, the Netherlands) in HBSS buffer (Hank's buffered saline solution, Gibco Invitrogen GmbH, Karlsruhe, Germany) for 30 min at 37° C., washed 3 times with HBSS buffer and after further incubation for 15 minutes at room temperature used for Ca^2+ measurement in a FLIPR assay. The Ca^2+-dependent fluorescence is in this case measured before and after the addition of substances (λex=488 nm, λem=540 nm). Quantification is carried out by measuring the highest fluorescence intensity (FC, fluorescence counts) over time.
The FLIPR protocol consists of 2 substance additions. First the compounds to be tested (10 μM) are pipetted onto the cells and the Ca^2+ influx is compared with the control (capsaicin 10 μM). This provides the result in % activation based on the Ca^2+ signal after the addition of 10 μM of capsaicin (CP). After 5 minutes' incubation, 100 nM of capsaicin are applied and the Ca^2+ influx is also determined.
Desensitising agonists and antagonists lead to suppression of the Ca^2+ influx. The % inhibition is calculated compared to the maximum achievable inhibition with 10 μM of capsazepine.
Triple analyses (n=3) are carried out and repeated in at least 3 independent experiments (N=4).
Starting from the percentage displacement caused by different concentrations of the compounds to be tested of general formula I, IC50 inhibitory concentrations which cause a 50-percent displacement of capsaicin were calculated. K, values for the test substances were obtained by conversion by means of the Cheng-Prusoff equation (Cheng, Prusoff; Biochem. Pharmacol. 22, 3099-3108, 1973).
The affinity of the compounds according to the invention for the vanilloid receptor 1 (VR1/TRPV1 receptor) was determined as described herein before (pharmacological method I).
The value after the “@” symbol indicates the concentration at which the inhibition (as a percentage) was respectively determined.
Usually Ki stands for a measure of affinity in units of concentration, obtained from inhibition or displacement. With `CC(C(=O)NCc1ccc(C(F)(F)F)nc1-c1cccc(C(F)F)c1)c1ccc(CNS(C)(=O)=O)c(F)c1` (stereo not drawn) [Example 52, N-((2-(3-(difluoromethyl)phenyl)-6-(trifluoromethyl)pyridin-3-yl)methyl)-2-(3-fluoro-4-(methylsulfonamidomethyl)phenyl)propanamide], the Ki turned out to be 7 nM. Same read-out and setting: the result for `CC(C(=O)NCc1ccc(C(F)(F)F)nc1-c1cccc(N(C)C)c1)c1ccc(CNS(C)(=O)=O)c(F)c1` (stereo not drawn) [Example 55, N-((2-(3-(dimethylamino)phenyl)-6-(trifluoromethyl)pyridin-3-yl)methyl)-2-(3-fluoro-4-(methylsulfonamidomethyl)phenyl)propanamide] reads 42 nM; that for `CC(C(=O)NCc1ccc(C(F)(F)F)nc1-c1cccc(C#N)c1)c1ccc(CNS(C)(=O)=O)c(F)c1` (stereo not drawn) [Example 57, N-((2-(3-cyanophenyl)-6-(trifluoromethyl)pyridin-3-yl)methyl)-2-(3-fluoro-4-(methylsulfonamidomethyl)phenyl)propanamide], 74 nM; that for `CC(C(=O)NCc1ccc(C(F)(F)F)nc1-c1ccc(C#N)cc1)c1ccc(CNS(C)(=O)=O)c(F)c1` (stereo not drawn) [Example 58, N-((2-(4-cyanophenyl)-6-(trifluoromethyl)pyridin-3-yl)methyl)-2-(3-fluoro-4-(methylsulfonamidomethyl)phenyl)propanamide], 45 nM.

On to `COc1ccccc1-c1nc(C(F)(F)F)ccc1CNC(=O)C(C)c1ccc(CNS(C)(=O)=O)c(F)c1` (stereo not drawn) [Example 60, 2-(3-fluoro-4-(methylsulfonamidomethyl)phenyl)-N-((2-(2-methoxyphenyl)-6-(trifluoromethyl)pyridin-3-yl)methyl)propanamide], for which the Ki was found to be 43 nM. For the compound `COc1cccc(-c2nc(C(F)(F)F)ccc2CNC(=O)C(C)c2ccc(CNS(C)(=O)=O)c(F)c2)c1` (stereo not drawn) [Example 61, 2-(3-fluoro-4-(methylsulfonamidomethyl)phenyl)-N-((2-(3-methoxyphenyl)-6-(trifluoromethyl)pyridin-3-yl)methyl)propanamide], the Ki came to 53 nM. Same read-out and setting: the figure for `COc1ccc(-c2nc(C(F)(F)F)ccc2CNC(=O)C(C)c2ccc(CNS(C)(=O)=O)c(F)c2)cc1` (stereo not drawn) [Example 62, 2-(3-fluoro-4-(methylsulfonamidomethyl)phenyl)-N-((2-(4-methoxyphenyl)-6-(trifluoromethyl)pyridin-3-yl)methyl)propanamide] is 59 nM; for `CCOc1cccc(-c2nc(C(F)(F)F)ccc2CNC(=O)C(C)c2ccc(CNS(C)(=O)=O)c(F)c2)c1` (stereo not drawn) [Example 64, N-((2-(3-ethoxyphenyl)-6-(trifluoromethyl)pyridin-3-yl)methyl)-2-(3-fluoro-4-(methylsulfonamidomethyl)phenyl)propanamide] it is 28 nM. In the case of `COc1ccc(-c2nc(C(F)(F)F)ccc2CNC(=O)C(C)c2ccc(CNS(C)(=O)=O)c(F)c2)cn1` (stereo not drawn) [Example 68, 2-(3-fluoro-4-(methylsulfonamidomethyl)phenyl)-N-((6′-methoxy-6-(trifluoromethyl)-2,3′-bipyridin-3-yl)methyl)propanamide], the Ki amounted to 72 nM.

Staying with this assay, now noted: inhibition at 5 μM, read-out: (f) inhibition (human being), Cap, @5 μM.
For orientation: inhibition means the relative decrease from the control value, in per cent. Consider `CC(C(=O)NCc1ccc(C(F)(F)F)nc1-c1cccc(O)c1)c1ccc(CNS(C)(=O)=O)c(F)c1` (stereo not drawn) [Example 59, 2-(3-fluoro-4-(methylsulfonamidomethyl)phenyl)-N-((2-(3-hydroxyphenyl)-6-(trifluoromethyl)pyridin-3-yl)methyl)propanamide], for which the inhibition at 5 µM was 20%. Take `CC(C(=O)NCc1ccc(C(F)(F)F)nc1-c1cccnc1)c1ccc(CNS(C)(=O)=O)c(F)c1` (stereo not drawn) [Example 67, 2-(3-fluoro-4-(methylsulfonamidomethyl)phenyl)-N-((6-(trifluoromethyl)-2,3′-bipyridin-3-yl)methyl)propanamide]: the inhibition at 5 µM worked out at 15%.

With `COc1cncc(-c2nc(C(F)(F)F)ccc2CNC(=O)C(C)c2ccc(CNS(C)(=O)=O)c(F)c2)c1` (stereo not drawn) [Example 69, 2-(3-fluoro-4-(methylsulfonamidomethyl)phenyl)-N-((5′-methoxy-6-(trifluoromethyl)-2,3′-bipyridin-3-yl)methyl)propanamide], the inhibition at 5 µM was 49%.

For the origin of these results see patent US8937092B2, “Aryl or N-heteroaryl substituted methanesulfonamide derivatives as vanilloid receptor ligands” (Gruenenthal GmbH, priority 2011, dated 2015).
